Reference: patent US7217794B2, “Compounds and methods for treatment of thrombosis” (Daiamed, Inc., priority 2003, dated 2007)
Like-named read-outs stand apart in the source and are kept apart here.

Legend:
[1] = target: T1, native Factor XIa (Homo sapiens, UniProt P03951); assay: Factor XIa enzyme inhibition assay (fluorogenic substrate pyroGlu-Pro-Arg-AMC); assay type: biochemical
T1 construct: cleavage generates the same light chain segment as is found for human Factor XIa protein; purchased Haematological Associates FXIA01
Procedure: Potential inhibitors of Factor XIa were evaluated using a modification of the above assay. […] This substrate had the p-nitroanaline group replaced with 7-methylaminocoumarin (AMC). […] Inhibitors were tested by serial dilution over an appropriate range to yield a dose response curve for determination of the inhibitors' IC50 values. The assay mixture was incubated for 30 minutes at 30° C., and the fluorescent yield was measured using a PE-Wallac Victor 2 Plate Reader. Dose response curves were fit to Equation 1 in which A is the maximum inhibition, B is the minimum inhibition, C is the IC50, and D is the Hill coefficient.
Potential inhibitors of Factor XIa were evaluated using the following assay. […] This substrate had the p-nitroanaline group replaced with 7-methylaminocoumarin (AMC).
Inhibitors were tested by serial dilution over an appropriate range to yield a dose response curve for determination of the inhibitors' IC50 value. The assay mixture was incubated for 30 minutes at 30° C., and the fluorescent yield measured using a PE-Wallac VICTOR2™ Plate Reader. Dose response curves were fit to equation 1 below in which A is the maximum inhibition, B is the minimum inhibition, C is the IC50, and D is the Hill coefficient.

[2] = target: Factor Xa (Homo sapiens, UniProt P00742); assay: Factor Xa enzyme inhibition assay (purified enzyme); assay type: biochemical
[3] = target: thrombin (Homo sapiens, UniProt P00734); assay: Thrombin enzyme inhibition assay (purified enzyme); assay type: biochemical
[4] = system: venous thrombosis; assay: Rat venous thrombosis model (stenosis of inferior vena cava with hypotonic saline infusion); assay type: in vivo
Procedure: Compound 22 was administered as a continuous intravenous infusion via the femoral vein commenced 15 minutes prior to the thrombotic challenge. Thrombus mass was assessed at 60 minutes following challenge. Results are expressed as the percentage of the vehicle mean.
Briefly, male Sprague-Dawley rats (300–400 g) were anesthetized using ketamine/xylazine I.M. A midline laparotomy was performed, and the vena cava was visualized and gently separated from the descending aorta using cotton swabs. Both iliolumbar veins were ligated with suture (3–0 silk). A loose ligature (3–0 silk) was placed around the vena cava distal to the renal veins. A 25G butterfly bent at a 90-degree angle and attached to a 5 cc syringe filled with 2.5 mL of hypotonic saline (0.225%) was inserted into the vena cava at the level of the iliolumbar veins and glued into place using VETBOND™. A 26G needle bent to a 90-degree angle was then tied tightly to the vena cava, using the loose ligature. An atraumatic clamp was placed on the vena cava proximal to the iliac bifurcation, and the hypotonic saline manually infused at a rate of 10 mL/minutes. The atraumatic clamp was removed, along with the 26G needle, creating a 26G stenosis. Organs were carefully replaced, and animals were kept normothermic until sacrifice. Animals were sacrificed by anesthetic overdose at 10 or 60 minutes post thrombus induction. Following sacrifice, the vena cava was isolated using hemostats, and the clot(s) was dissected out. Clots were removed, blotted on gauze, and then immediately weighed using an analytical balance.
Compounds under investigation along with vehicles and positive controls (heparin, enoxaparin) were administered intravenously via a catheter (PE-50 tubing) implanted in the jugular or femoral vein. In some studies, rats were administered a bolus of the test article (4 mL/kg) via the venous catheter immediately prior to initiation of intravenous infusion (4 mL/kg/h). The rats were subjected to the challenge 15 minutes post bolus/infusion initiation. All test article infusions continued to the end of the study period.
Administration of compound XLXI commenced 15 minutes prior to thrombotic challenge, with determination of thrombus mass at 60 minutes post challenge.

[5] = system: rat Factor XIa; assay: Inhibition of rat Factor XIa compared with native human Factor XIa; assay type: biochemical; conditions: rat Factor XIa vs native human Factor XIa
[6] = Table 12, compounds of formula I (R^0 is 2-thiazole), read-out: FXIa IC50
[7] = Table 12, read-out: Thrombin IC50

T1 sequence (P03951 388-625 limits assumed): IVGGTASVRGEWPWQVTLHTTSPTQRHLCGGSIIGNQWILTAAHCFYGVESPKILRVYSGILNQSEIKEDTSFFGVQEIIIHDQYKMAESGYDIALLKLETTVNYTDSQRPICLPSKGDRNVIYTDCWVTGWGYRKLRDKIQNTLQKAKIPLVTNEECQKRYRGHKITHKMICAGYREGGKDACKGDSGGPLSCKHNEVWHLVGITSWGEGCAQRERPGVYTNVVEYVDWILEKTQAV
T1 sequence (P03951 19-387 partner limits assumed): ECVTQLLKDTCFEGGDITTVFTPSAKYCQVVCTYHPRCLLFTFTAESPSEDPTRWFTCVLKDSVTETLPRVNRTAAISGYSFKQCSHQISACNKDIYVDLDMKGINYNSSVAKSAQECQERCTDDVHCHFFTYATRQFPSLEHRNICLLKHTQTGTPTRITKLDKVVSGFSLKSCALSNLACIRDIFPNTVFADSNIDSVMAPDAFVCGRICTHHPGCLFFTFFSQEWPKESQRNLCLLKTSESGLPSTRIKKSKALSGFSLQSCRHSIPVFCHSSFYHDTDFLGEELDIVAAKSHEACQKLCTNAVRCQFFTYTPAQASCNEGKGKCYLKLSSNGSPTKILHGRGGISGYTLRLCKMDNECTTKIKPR
Chain of Factor Xa (P00742 235-488 limits assumed): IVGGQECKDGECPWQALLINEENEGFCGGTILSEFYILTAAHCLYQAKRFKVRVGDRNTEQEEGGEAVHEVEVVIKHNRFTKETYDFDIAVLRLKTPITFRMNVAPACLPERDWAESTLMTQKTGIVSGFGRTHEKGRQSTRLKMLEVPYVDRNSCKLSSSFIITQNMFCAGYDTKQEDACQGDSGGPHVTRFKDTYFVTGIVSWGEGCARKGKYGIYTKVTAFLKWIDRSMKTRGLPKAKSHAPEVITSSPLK
Chain of Factor Xa (P00742 41-179 partner limits assumed): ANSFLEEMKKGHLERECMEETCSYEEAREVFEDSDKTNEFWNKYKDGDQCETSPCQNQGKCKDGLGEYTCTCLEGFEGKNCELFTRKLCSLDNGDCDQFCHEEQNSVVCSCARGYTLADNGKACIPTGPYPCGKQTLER

| Compound | IC50 [1, 6] | IC50 ([2]; Table 12, read-out: FXa IC50) | IC50 [3, 7] | IC50 [1] | other results |
| --- | --- | --- | --- | --- | --- |
| CC(C)[C@H](NC(=O)[C@H](Cc1cccnc1)NC(=O)N[C@H](C)c1ccc(Br)cc1)C(=O)N[C@@H](CCCNC(=N)N)C(=O)c1nccs1 [Compound 22] |  |  |  |  | effect on thrombus formation ([4]; continuous intravenous administration begun 15 minutes before thrombotic challenge, thrombus mass at 60 minutes post challenge): suppressed the thrombus formation; total dose exposure at which efficacy was observed ([4]; continuous intravenous infusion, thrombus mass at 60 minutes post challenge): 1.4 mg/kg; efficacy in rat model of venous thrombosis ([4]; intravenous): statistically significant efficacy; change in thrombus size at the higher dose ([4]; total dose exposure 4.0 mg/kg compared with 1.4 mg/kg): no further decrease in thrombus size; specificity for rat Factor XIa relative to native human Factor XIa (fold less) [5]: 11 fold |
| CC(C)CC(NC(=O)NCc1ccc(Cl)c(Cl)c1)C(=O)NC(C(=O)NC(CCCNC(=N)N)C(=O)c1nccs1)C(C)C (stereo not shown) |  | 20000 nM | 615 nM | 64 nM |  |
| CCC(C)C(NC(=O)C(CC(C)C)NC(=O)NCc1ccc(Cl)c(Cl)c1)C(=O)NC(CCCNC(=N)N)C(=O)c1nccs1 (stereo not shown) |  |  |  | 78 nM | IC50 [2]: 84900 nM; IC50 [3]: 2650 nM |

More lines, main results first:

| IC50 [1, 6] | IC50 ([2]; Table 12, read-out: FXa IC50) | IC50 [3, 7] | Compound | IC50 [1] | other results |
| --- | --- | --- | --- | --- | --- |
| 116 nM | 2360 nM | 225 nM | CC(C)C(NC(=O)C(O)c1cccc(Cl)c1)C(=O)NC(CCCNC(=N)N)C(=O)c1nccs1 (stereo not shown) |  |  |
| 5 nM | 31 nM | 20 nM | COC(=O)c1cccc(CS(=O)(=O)NC(C(=O)NC(CC(C)C)C(=O)NC(CCCNC(=N)N)C(=O)c2nccs2)C2CCCCC2)c1 (stereo not shown) |  |  |
|  | 1190 nM | 253 nM | CC(C)C(NC(=O)C(O)c1ccccc1)C(=O)NC(CCCNC(=N)N)C(=O)c1nccs1 (stereo not shown) |  |  |
